Consider 2 molecules from patent US9980972B2, “Rho kinase inhibitors for use in treating familial amyotrophic lateral sclerosis” (GEORG-AUGUST-UNIVERSITÄT GÖTTINGEN STIFTUNG ÖFFENTLICHEN …, priority 2012, dated 2018).

Assay [1] concerns SOD1 G93A mouse model of ALS. Description: Survival (age at death) in SOD1 G93A mouse model of ALS. It counts as in vivo. Conditions: presymptomatic from d50, 10 mg/kg body weight, male and female. The source says:
High-copy B6SJL-Tg(SOD1*G93A)1Gur/J were obtained from Jackson Labs (Stock Number 002726; Bar Harbor, USA) that had originally been produced by Gurney et al. (Gurney, Pu et al. 1994). The colony was maintained by crossing C57BL/6 males harboring the transgene with wild-type SJL females. To verify presence of the transgene in the F1 progeny, tail biopsies were collected from 14-day-old pups and genotyped using PCR. At the age of 35-45 days mice were moved to the testing facility to acclimate to the new environment with a 12-h light/dark cycle before being assigned to a study.
At 50 days (presymptomatic, d50) or 80 days of age (symptomatic, d80) mice were separated into Fasudil-30 (Fas30)- and Fasudil-100 (Fas100)-Treatment or Vehicle Control (Veh) groups. Prior to any treatment, groups were constituted so as to minimize between-group variability by using the following criteria. Groups were balanced with respect to gender and body weight within gender. In addition, groups were age-matched and littermate-matched. […] The study was observer-blinded.
To reach sufficient CSF levels of Fasudil the inventors administered Fasudil (LC Labs, Woburn, USA; product number F-4660) at a low concentration of […] (Fas30) or at a high concentration of 50 mg (Fas100) in 100 ml drinking water. Control groups received the respective amount of isotonic drinking water termed as vehicle (Veh).
Chronic oral treatment with a low dose of Fasudil (F30) or a high dose of Fasudil (F100) was started either presymptomatically at day 50 or symptomatically at day 80 and continued until death.
Survival. Date and cause of death were recorded for each mouse. For humane reasons, animals are closely monitored and sacrificed as moribund prior to actual death using criteria for severe moribundity. To determine duration of survival reliably and humanely, the moribund state, defined as the inability of mice to right themselves 30 seconds after being placed on a side (a neurological score of 4) was used. The moribund mice were scored as “dead”, and were euthanized using carbon dioxide.
The data were then analyzed using Kaplan-Meier survival fit analysis with the Log-Rank and Wilcoxon tests for statistical significance. Cox proportional hazards analysis was also performed to determine hazard ratios and test for statistical significance of their differences using the Effect Likelihood Chi Square test. Statistical analyses were performed using Statistica 9.1 (StatSoft, Hamburg, Germany). P-values less than 0.05 were taken to be statistically significant.
The criteria to terminate the therapy study (later referred to as time of death) were fulfilled if the animals had reached the terminal neurological scoring or had lost a defined percentage of the maximal body weight. This time point then reflects the survival time of the animals whereas disease duration was measured from onset of disease until time of death.

Assay [2] deals with regenerating axons after optic nerve crush lesion. Conditions: high intravitreal dose 40 μmol/l in comparison to medium dose 400 nmol/l; cited from earlier work.

In the case of `C[C@@H](N)[C@H]1CC[C@H](C(=O)Nc2ccncc2)CC1` [Y-27632], the survival result in assay [1] is listed as “no significant effects”.
In the case of `Cc1cncc2cccc(S(=O)(=O)N3CCCNC[C@@H]3C)c12` [dimethyl-fasudil, (S)-(+)-2-Methyl-1-[(4-methyl-5-isoquinolinyl)sulfonyl]-hexahydro-1H-1,4-diazepine], the “number of regenerating axons after optic nerve crush lesion” value in assay [2] is “significantly reduced”.
